Data on seven compounds can be found in PubChem BioAssay (NCI).

Some test systems named below: HCT-15 colon; HOP-62 NSCLC; HOP-92 NSCLC; IGROV1 ovarian; MDA-MB-231 breast; SK-MEL-28 melanoma; SR leukemia; SW-620 colon; U251 CNS; UACC-257 melanoma.
What all share (assay): NCI anticancer screen, dose series, 48 h

Several values for one entry are separate records, joined by “and”; a condition that tells them apart may be missing. Identical values can stand only once.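 1) Cells in 96-well plates. 2) Compound, 48 h, 5 concentrations. 3) Linear interpolation between surrounding doses. 4) Unreached endpoint = highest concentration. Here, GI50 denotes the concentration required for 50% inhibition of growth. TGI: concentration producing complete growth inhibition.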 Where only a bound is given, the exact number is not on record here.

As for `COc1cc2c(cc1OCCCCCCN1CCN(CC(=O)Nc3ccc(Cl)cc3C(=O)c3ccccc3Cl)CC1)N=CC1CCCN1C2=O` (stereo not drawn), the GI50 with HCT-15 colon was 0.518 µM; in the test on HOP-62 NSCLC, 0.146 µM; in the test with HOP-92 NSCLC, 0.177 µM; with IGROV1 ovarian it was 0.195 µM; with MDA-MB-231 breast, 0.383 µM; in the test with SK-MEL-28 melanoma, 0.185 µM. Also, the GI50 in the test with SR leukemia is 0.0447 µM; with SW-620 colon, 0.211 µM; in the test with U251 CNS, 0.258 µM; in the test on UACC-257 melanoma, 0.2 µM. Moreover, the TGI with HCT-15 colon was determined as 1.18 µM; in the test with HOP-62 NSCLC it was 0.294 µM; in the test on HOP-92 NSCLC, 0.396 µM; with IGROV1 ovarian, 0.388 µM; in the test on MDA-MB-231 breast, 1.07 µM; in the test with SK-MEL-28 melanoma it was 0.332 µM. For the same compound, the TGI came out at 0.194 µM in the test with SR leukemia, 0.591 µM in the test with SW-620 colon, 0.725 µM in the test on U251 CNS and 0.775 µM with UACC-257 melanoma.
With `C1CC[N-]CC1.CC(=N\O)/C(C)=N/O.CC(=N\O)/C(C)=N/O.OC1[CH-]CCCC1.[Co+2]`, the GI50 was 65.5 µM in the test on HCT-15 colon; above 100 µM in the test on HOP-62 NSCLC; 22.2 µM in the test on HOP-92 NSCLC; 44.9 µM in the test on IGROV1 ovarian; above 100 µM with MDA-MB-231 breast; 32.5 µM in the test with SK-MEL-28 melanoma. In addition, the GI50 was 20.5 µM in the test with SR leukemia, 31.6 µM in the test with SW-620 colon, 31 µM in the test on U251 CNS and 29.5 µM in the test on UACC-257 melanoma. The TGI in the test with HCT-15 colon was above 100 µM; in the test on HOP-62 NSCLC, above 100 µM; in the test with HOP-92 NSCLC, 93.1 µM; with IGROV1 ovarian, above 100 µM; in the test on MDA-MB-231 breast, above 100 µM; with SK-MEL-28 melanoma it was above 100 µM. For the same compound, the TGI is 62.6 µM in the test with SR leukemia, above 100 µM in the test on SW-620 colon, above 100 µM in the test with U251 CNS and above 100 µM with UACC-257 melanoma.
On to `CCOc1c(N=Nc2ccccc2Cl)c(-c2ccccc2)nn1C(=S)S`, for which the TGI with HCT-15 colon was above 100 µM; in the test with HOP-62 NSCLC, above 100 µM; with HOP-92 NSCLC it was above 100 µM; with IGROV1 ovarian, above 100 µM; in the test on MDA-MB-231 breast it was 56.5 µM; with SK-MEL-28 melanoma, above 100 µM. Besides, the TGI is 60 µM with SR leukemia, above 100 µM with SW-620 colon, above 100 µM in the test with U251 CNS and above 100 µM in the test on UACC-257 melanoma.
As for `CC(C)=CCC(OC(=O)C=C(C)C)C1=CC(=O)c2c(O)ccc(O)c2C1=O` (stereo not drawn), the GI50 is 1.07 µM in the test with HCT-15 colon; 0.365 µM in the test on HOP-92 NSCLC; 1.63 µM with MDA-MB-231 breast; 1.01 µM in the test on SK-MEL-28 melanoma; 0.123 µM in the test on SR leukemia; 0.327 µM in the test with SW-620 colon. The figures for the GI50 with U251 CNS and in the test with UACC-257 melanoma were 1.71 µM and 1.51 µM, respectively. For the same compound, the TGI in the test with HCT-15 colon is 3.22 µM and 1.13 µM; with HOP-62 NSCLC, 25.7 µM and 24.4 µM; in the test with HOP-92 NSCLC it was 1.38 µM and 1.29 µM; in the test on IGROV1 ovarian, 4.42 µM; in the test on MDA-MB-231 breast, 3.89 µM; with SK-MEL-28 melanoma, 2.52 µM and 2.67 µM. The TGI was above 100 µM in the test on SR leukemia; 1.27 µM and 0.867 µM with SW-620 colon; 3.61 µM and 9.1 µM in the test with U251 CNS; 4.15 µM and 2.5 µM in the test with UACC-257 melanoma.
`OCc1ccc(-c2cscc2-c2ccc(CO)o2)o1`: the GI50 with HCT-15 colon was above 80.1 µM; with HOP-62 NSCLC it was 3.55 µM; with HOP-92 NSCLC, 16.1 µM; in the test with IGROV1 ovarian, 0.576 µM; with MDA-MB-231 breast, above 100 µM; in the test with SK-MEL-28 melanoma, above 100 µM. Besides, the GI50 in the test on SR leukemia was above 100 µM; with SW-620 colon it was 7.14 µM; with U251 CNS, 44.1 µM; in the test on UACC-257 melanoma, 0.507 µM. For the same compound, the TGI is above 100 µM with HCT-15 colon; 37.6 µM in the test with HOP-62 NSCLC; above 94 µM with HOP-92 NSCLC; 6.47 µM in the test with IGROV1 ovarian; above 100 µM with MDA-MB-231 breast; above 100 µM with SK-MEL-28 melanoma. Moreover, the TGI in the test with SR leukemia was above 100 µM; with SW-620 colon it was above 100 µM; in the test with U251 CNS it was above 100 µM; in the test with UACC-257 melanoma, 1.91 µM.
As for `O=C1CC(c2[nH]nc3ccccc23)C(=O)N1c1ccccc1` (stereo not drawn), the TGI with HCT-15 colon, with HOP-62 NSCLC, in the test on HOP-92 NSCLC, in the test with IGROV1 ovarian, in the test on MDA-MB-231 breast and with SK-MEL-28 melanoma was above 100 µM in each case. The TGI with SR leukemia, in the test with SW-620 colon, in the test on U251 CNS and with UACC-257 melanoma was above 100 µM throughout.
Consider `Cc1c2cc(Cl)c3ccccc3c2c[n+]2ccccc12`, for which the GI50 in the test on HCT-15 colon was 41.8 µM; in the test with HOP-62 NSCLC it was 2.24 µM; in the test on HOP-92 NSCLC it was 2.04 µM; in the test with IGROV1 ovarian, 9.18 µM; in the test with MDA-MB-231 breast, 11.9 µM; with SK-MEL-28 melanoma, 1.8 µM. Besides, the GI50 in the test with SR leukemia was 2.4 µM; in the test with SW-620 colon, 3.74 µM; in the test on U251 CNS, 0.468 µM; in the test with UACC-257 melanoma, 4.27 µM. The TGI with HCT-15 colon was above 100 µM; in the test on HOP-62 NSCLC, 16.1 µM; in the test with HOP-92 NSCLC it was 27.4 µM; in the test with IGROV1 ovarian, 60.3 µM; in the test on MDA-MB-231 breast it was 39.8 µM; in the test on SK-MEL-28 melanoma it was 4.87 µM. The TGI was found to be 15.2 µM in the test on SR leukemia, 24.2 µM in the test on SW-620 colon, 3.61 µM in the test with U251 CNS and 17.9 µM with UACC-257 melanoma.
